# Source: ChEMBL document CHEMBL3046295, “Quantitative structure activity relationship (QSAR) studies of a series of 2,5-disubstituted-1,3,4-oxadiazole derivatives as biologically potential compounds” (2011)
# Columns and labels:
# [1] = tested on: Staphylococcus aureus; experiment: Antibacterial activity against Staphylococcus aureus; format: functional; conditions: for MIC: Staphylococcus aureus
# [2] = tested on: Escherichia coli; experiment: Antibacterial activity against Escherichia coli; format: functional; conditions: for MIC: Escherichia coli
SMILES,MIC [1] [µg/mL],MIC [2] [µg/mL],-logMIC [1],-logMIC [2]
Cc1cccc(C)c1NC(=O)CCSc1nnc(Cn2nnc3ccccc32)o1,110,100,6.5693,6.6107
O=C(CSc1nnc(-c2cccnc2)o1)Nc1ccc(Br)cc1,125,90,6.4953,6.6379
O=C(CCSc1nnc(-c2cccnc2)o1)Nc1ccc(Cl)cc1,100,80,6.5575,6.2349
O=C(CCSc1nnc(-c2cccnc2)o1)Nc1ccc([N+](=O)[O-])cc1,100,120,6.5694,6.4902
O=C(CSc1nnc(-c2cccnc2)o1)Nc1ccc([N+](=O)[O-])cc1,150,145,6.3766,6.3913
COc1ccc(NC(=O)CCSc2nnc(-c3cccnc3)o2)cc1,140,100,6.4053,6.5514
O=C(CSc1nnc(-c2cccnc2)o1)N1CCCCC1,155,180,,6.229
Cc1cccc(C)c1NC(=O)CSc1nnc(Cn2nnc3ccccc32)o1,130,120,6.4816,6.5163
CCCNC(=O)CCSc1nnc(-c2cccnc2)o1,115,110,6.4445,6.4069
O=C(CCSc1nnc(-c2cccnc2)o1)Nc1ccc(F)cc1,170,150,6.3061,6.3605
CCCCNC(=O)CSc1nnc(-c2cccnc2)o1,95,115,6.4877,6.4047
CCCCNC(=O)CCSc1nnc(-c2cccnc2)o1,120,125,6.4246,
O=C(CSc1nnc(-c2cccnc2)o1)Nc1ccc(F)cc1,130,125,6.4046,6.4216
COc1ccc(NC(=O)CSc2nnc(Cn3nnc4ccccc43)o2)cc1,125,120,6.5008,6.5185
COc1ccc(NC(=O)CSc2nnc(-c3cccnc3)o2)cc1,140,150,6.3879,6.3579
O=C(CCSc1nnc(-c2cccnc2)o1)Nc1ccc(Br)cc1,150,165,,
CCCNC(=O)CSc1nnc(-c2cccnc2)o1,100,125,6.444,6.3471
O=C(CSc1nnc(Cn2nnc3ccccc32)o1)Nc1ccc(Cl)c(Cl)c1,125,90,6.5416,6.6842
O=C(CCSc1nnc(Cn2nnc3ccccc32)o1)Nc1c(Cl)cccc1Cl,120,90,6.5731,6.698
O=C(CSc1nnc(Cn2nnc3ccccc32)o1)Nc1c(Cl)cccc1Cl,115,80,6.5778,6.7354
O=C(CCSc1nnc(-c2cccnc2)o1)N1CCOCC1,140,130,6.3396,6.3718
O=C(CCSc1nnc(-c2cccnc2)o1)Nc1c(Cl)cccc1Cl,95,170,6.4877,6.4638
O=C(CSc1nnc(-c2cccnc2)o1)N1CCOCC1,120,110,6.4065,6.4443
O=C(CSc1nnc(-c2cccnc2)o1)Nc1ccc(Cl)cc1,135,100,6.41,6.5403

# Second part, led by results:
MIC [1] [µg/mL],MIC [2] [µg/mL],SMILES,-logMIC [1],-logMIC [2]
100,100,COc1ccc(NC(=O)CCSc2nnc(Cn3nnc4ccccc43)o2)cc1,6.6128,6.6128
120,120,O=C(CCSc1nnc(Cn2nnc3ccccc32)o1)Nc1ccc(Cl)cc1,6.5378,6.5378
110,120,O=C(CCSc1nnc(Cn2nnc3ccccc32)o1)Nc1ccc(Cl)c(Cl)c1,6.6109,6.5731
120,110,Cc1ccc(NC(=O)CSc2nnc(Cn3nnc4ccccc43)o2)cc1,6.5006,6.5384
110,125,Cc1ccc(NC(=O)CCSc2nnc(Cn3nnc4ccccc43)o2)cc1,6.5541,6.4986
110,75,O=C(CSc1nnc(Cn2nnc3ccccc32)o1)Nc1ccc(Br)cc1,6.607,6.7733
85,100,O=C(CSc1nnc(Cn2nnc3ccccc32)o1)Nc1ccc(Cl)cc1,6.6737,6.6031
140,115,O=C(CSc1nnc(Cn2nnc3ccccc32)o1)Nc1ccc([N+](=O)[O-])cc1,6.4677,6.5531
115,110,O=C(CCSc1nnc(Cn2nnc3ccccc32)o1)Nc1ccc([N+](=O)[O-])cc1,6.5677,6.587
105,80,O=C(CCSc1nnc(Cn2nnc3ccccc32)o1)Nc1ccc(F)cc1,6.5787,6.6968
75,100,O=C(CCSc1nnc(Cn2nnc3ccccc32)o1)Nc1ccc(Br)cc1,6.7868,6.6618
100,85,O=C(CSc1nnc(Cn2nnc3ccccc32)o1)Nc1ccc(F)cc1,6.5843,6.6549
